{"source": "patent US20230131929A1", "about": "“QUINOLINE COMPOUNDS FOR TREATING RESPIRATORY DISORDERS AND VIRAL INFECTIONS” (Aldeyra Therapeutics, Inc., priority 2020, published 2023)", "key": {"[1]": {"test": "rodent models of NASH", "assay_type": "in vivo", "settings": "three different rodent models of NASH", "source_text": "(§1) These cytokines and chemokines affect Th1, Th2, and Th17 pathways, all of which are important in immune homeostasis and disease (Kaiko et al., Immunology 123:326-338, 2007. DOI 10.1111/j.1365-2567.2007.02719.x.; Weaver et al., Annu. Rev. Pathol 8:477-512, 2013. DOI 10.1146/annurev-pathol-011110-130318)."}, "[2]": {"test": "dextran sulfate sodium (DSS)-induced mouse model of UC", "assay_type": "in vivo", "source_text": "as §1"}, "[3]": {"system": "inflammatory cytokines and chemokines", "test": "LPS-induced mouse model of acute sepsis, plasma cytokine profile", "assay_type": "in vivo", "settings": "for IL-10 plasma level, significance of effect: anti-inflammatory cytokine, release facilitated", "protocol": "FIG. 4 and FIG. 5 show the effect of compound I-1 on levels of various inflammatory cytokines in a preclinical sepsis model. In the study, lipopolysaccharide (LPS) was administered IP to mice. 30 minutes later, I-1 was administered IP or PO. Mice were sacrificed after 2 hours, and their plasma submitted for cytokine profile analysis. IP=intraperitoneally; PO=orally; mpk=mg per kg. […]\nFIG. 4 and FIG. 5 show the effect of compound I-1 on levels of various inflammatory cytokines in a preclinical sepsis model. In the study, lipopolysaccharide (LPS) was administered IP to mice. 30 minutes later, I-1 was administered IP or PO. Mice were sacrificed after 2 hours, and their plasma submitted for cytokine profile analysis. IP=intraperitoneally; PO=orally. As shown in the table below, I-1 decreased several pro-inflammatory cytokines. * P≤0.05; ** P≤0.01; *** P≤0.001; **** P≤0.0001."}, "[4]": {"settings": "clinical trials; cited from earlier work"}, "[5]": {"system": "leukocyte migration", "test": "LPS-induced acute lung injury model (preclinical ARDS model)", "assay_type": "in vivo", "settings": "administered IP", "source_text": "In the bottom panel, the effect of test compounds on leukocyte migration is shown in the model. […] Free RASP are toxic, leading to inflammation and molecular dysfunction by covalently binding to cellular biomolecules, and have been linked to systemic immune-mediated and inflammatory diseases, such as NASH, inflammatory bowel disease (IBD), and other diseases. […]"}, "[6]": {"settings": "100 mpk IP 30 min after LPS IP, mice, plasma after 2 hours"}, "[7]": {"settings": "400 mpk PO 30 min after LPS IP, mice, plasma after 2 hours"}, "[8]": {"settings": "LPS-induced mouse model of acute sepsis"}, "[9]": {"settings": "LPS-induced acute lung injury model"}}, "data": [{"smiles": "CC(C)(O)c1nc2ccccc2cc1N", "note": "[I-1]", "values": [{"measurement": "circulating markers of liver function and inflammation (liver inflammation, steatosis, hepatocyte ballooning, fibrosis)", "setting": "[1]", "result": "may have beneficial effects"}, {"measurement": "disease parameters (body weight loss, disease activity score, colon length, colon edema, colon inflammation)", "setting": "[2]", "result": "improved several disease parameters"}, {"measurement": "GM-CSF plasma level, significance of effect", "setting": "[3]; [6]", "result": "* (* P≤0.05)"}, {"measurement": "IFNγ plasma level, significance of effect", "setting": "[3]; [6]", "result": "*** (*** P≤0.001)"}, {"measurement": "IL-1β plasma level, significance of effect", "setting": "[3]; [6]", "result": "** (** P≤0.01)"}, {"measurement": "IL-5 plasma level, significance of effect", "setting": "[3]; [6]", "result": "**** (**** P≤0.0001)"}, {"measurement": "IL-7 plasma level, significance of effect", "setting": "[3]; [6]", "result": "** (** P≤0.01)"}, {"measurement": "IL-12 (p40) plasma level, significance of effect", "setting": "[3]; [6]", "result": "*** (*** P≤0.001)"}, {"measurement": "IL-17 plasma level, significance of effect", "setting": "[3]; [6]", "result": "** (** P≤0.01)"}, {"measurement": "M-CSF plasma level, significance of effect", "setting": "[3]; [6]", "result": "* (* P≤0.05)"}, {"measurement": "MIP-1α plasma level, significance of effect", "setting": "[3]; [6]", "result": "** (** P≤0.01)"}, {"measurement": "MIP-1β plasma level, significance of effect", "setting": "[3]; [6]", "result": "** (** P≤0.01)"}, {"measurement": "MIP-2 plasma level, significance of effect", "setting": "[3]; [6]", "result": "** (** P≤0.01)"}, {"measurement": "TNFα plasma level, significance of effect", "setting": "[3]; [6]", "result": "* (* P≤0.05)"}, {"measurement": "VEGF plasma level, significance of effect", "setting": "[3]; [6]", "result": "* (* P≤0.05)"}, {"measurement": "IL-10 plasma level, significance of effect", "setting": "[3]; [6]", "result": "** (** P≤0.01)"}, {"measurement": "IFNγ plasma level, significance of effect", "setting": "[3]; [7]", "result": "*** (*** P≤0.001)"}, {"measurement": "IL-1β plasma level, significance of effect", "setting": "[3]; [7]", "result": "** (** P≤0.01)"}, {"measurement": "IL-5 plasma level, significance of effect", "setting": "[3]; [7]", "result": "**** (**** P≤0.0001)"}, {"measurement": "IL-7 plasma level, significance of effect", "setting": "[3]; [7]", "result": "* (* P≤0.05)"}, {"measurement": "IL-12 (p40) plasma level, significance of effect", "setting": "[3]; [7]", "result": "**** (**** P≤0.0001)"}, {"measurement": "IL-15 plasma level, significance of effect", "setting": "[3]; [7]", "result": "** (** P≤0.01)"}, {"measurement": "IL-17 plasma level, significance of effect", "setting": "[3]; [7]", "result": "* (* P≤0.05)"}, {"measurement": "M-CSF plasma level, significance of effect", "setting": "[3]; [7]", "result": "*** (*** P≤0.001)"}, {"measurement": "MCP-1 plasma level, significance of effect", "setting": "[3]; [7]", "result": "** (** P≤0.01)"}, {"measurement": "MIP-1α plasma level, significance of effect", "setting": "[3]; [7]", "result": "* (* P≤0.05)"}, {"measurement": "MIP-1β plasma level, significance of effect", "setting": "[3]; [7]", "result": "* (* P≤0.05)"}, {"measurement": "IL-10 plasma level, significance of effect", "setting": "[3]; [7]", "result": "** (** P≤0.01)"}, {"measurement": "release of inflammatory cytokines and chemokines", "setting": "[3]; [8]", "result": "inhibit the release"}, {"measurement": "release of the anti-inflammatory cytokine interleukin (IL)-10", "setting": "[3]; [8]", "result": "facilitate the release"}]}, {"smiles": "CC(C)(O)c1nc2ccc(Cl)cc2cc1N", "note": "[I-2, reproxalap]", "values": [{"measurement": "effect in treating ocular inflammation", "setting": "[4]", "result": "beneficial effects"}, {"measurement": "infiltrating cells", "setting": "[5]; [9]", "result": "decreased infiltrating cells"}, {"measurement": "lung function", "setting": "[5]; [9]", "result": "improved lung function"}, {"measurement": "activity in LPS-induced acute lung injury model", "setting": "[5]; compared with saline and dexamethasone", "result": "promising activity"}]}]}
